Test results: paper PMC8301423, “The Effects of Temperature and Pressure on Protein-Ligand Binding in the Presence of Mars-Relevant Salts” (Biology, 2021)

Target: T1, bovine serum albumin (BSA) (Bos taurus, UniProt P02769)
T1 construct: BSA, molecular weight of 66 kDa, 583 residues; purchased Sigma Aldrich Chemicals (Taufkirchen, Germany)
Assay: Steady-state fluorescence titration of ANS with BSA at ambient pressure (binding isotherms)
Details: for Kd: 1 bar, 10 mM Tris-HCl pH 7.4
From the text: The extent of complex formation between ANS and BSA was followed by means of steady-state fluorescence spectroscopy using a K2 fluorometer from ISS, Inc. (Champaign, IL, USA). The binding isotherms were obtained by recording ANS emission spectra by exciting the solutions at 350 nm and recording the emission intensities in the range 400–550 nm. The width slits of the excitation and emission monochromators were both set to 8 nm. Briefly, a series of solutions with a fixed concentration of ANS at ~5 µM were prepared, and the concentration of BSA was varied between 0 and ~40 µM. Then estimation of the binding constants (Kb) was performed by using a plot of ΔF = F − F0 (where F is the fluorescence intensity of ANS at the maximum in the presence of BSA, and F0 is the intensity of ANS in the absence of BSA) as a function of total BSA concentration and fitting the experimental data according to an equivalent and independent binding sites model or to two classes of non-equivalent and independent binding-site models, as described in detail in Reference.
Once the stoichiometries of the complex in the presence of the salts and at the three different temperatures are known, it is possible to estimate the binding constants, Kb, performing titration experiments by means of steady-state fluorescence spectroscopy. In these experiments, a solution of ANS was titrated with a BSA solution. The ANS is characterized by a very low quantum yield when it is free in solution [21]. Instead, when the aromatic ligand is bound to the protein’s hydrophobic pockets, a strong increase of the fluorescence intensity is observed. Thus, the extent of binding can be readily determined by following the fluorescence increase of ANS. The subsequent data analysis was performed according to the stoichiometries inferred by the Job’s plot experiments.

T1 sequence (P02769 25-607): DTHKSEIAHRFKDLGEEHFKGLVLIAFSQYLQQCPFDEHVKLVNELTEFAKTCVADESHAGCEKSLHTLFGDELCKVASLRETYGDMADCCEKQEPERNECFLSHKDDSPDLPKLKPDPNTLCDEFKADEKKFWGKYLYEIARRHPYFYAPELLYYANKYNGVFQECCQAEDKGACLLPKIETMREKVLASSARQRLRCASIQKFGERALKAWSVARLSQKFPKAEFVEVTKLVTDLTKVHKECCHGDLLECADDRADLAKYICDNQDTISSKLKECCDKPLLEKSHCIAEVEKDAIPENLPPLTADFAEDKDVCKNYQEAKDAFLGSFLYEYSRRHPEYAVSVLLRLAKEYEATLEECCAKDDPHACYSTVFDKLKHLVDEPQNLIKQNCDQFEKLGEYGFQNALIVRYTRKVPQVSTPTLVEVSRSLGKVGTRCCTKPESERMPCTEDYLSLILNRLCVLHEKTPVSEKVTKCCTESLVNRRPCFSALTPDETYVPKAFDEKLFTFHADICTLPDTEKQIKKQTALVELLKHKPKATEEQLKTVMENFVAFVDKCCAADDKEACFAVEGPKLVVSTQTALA

For `O=S(=O)(O)c1cccc2cccc(Nc3ccccc3)c12` [ANS, 8-anilinonaphthalene-1-sulfonic acid], the “Decrease of Kb on decreasing the temperature from 25 to 15 °C” value (250 mM MgCl2, 1 bar) was ~ 90%, the Kd (Binding constant Kb1, 250 mM Mg(ClO4)2, 5 °C) was 5260 nM and the Kd (Binding constant Kb1, 250 mM Mg(ClO4)2, 15 °C) was 6670 nM. The Kd (Binding constant Kb1, 250 mM Mg(ClO4)2, 25 °C) was 1690 nM, the Kd (Binding constant Kb1, 250 mM MgCl2, 5 °C) was 1000 ± 100 nM and the Kd (Binding constant Kb1, 250 mM MgCl2, 15 °C) was 2780 nM. The Kd (Binding constant Kb1, 250 mM MgCl2, 25 °C) was 204 nM, the Kd (Binding constant Kb1, 250 mM MgSO4, 5 °C) was 1610 nM and the Kd (Binding constant Kb1, 250 mM MgSO4, 15 °C) was 2560 nM. For the same compound, the Kd (Binding constant Kb1, 250 mM MgSO4, 25 °C) was 345 nM, the Kd (Binding constant Kb2, 250 mM Mg(ClO4)2, 5 °C) was 5260 nM and the Kd (Binding constant Kb2, 250 mM Mg(ClO4)2, 15 °C) was 7690 nM. It also gave a Kd (Binding constant Kb2, 250 mM Mg(ClO4)2, 25 °C) of 833 nM.
